From PMC8704707 (Pharmaceuticals, 2021)
≈ marks a conversion by molar mass, not a printed value. Where “and” joins values, the source holds several entries; their conditions need not be identical. Equal entries are not always repeated. Where two headings read alike, the source gives them in different places.

Experiments:
[1] = tested on: Acinetobacter baumannii ATCC 19606; experiment: Antibacterial microdilution broth method (EUCAST); type: cell-based
[2] = tested on: eight human pathogenic fungi; experiment: Antifungal microdilution broth method, whole panel; type: cell-based; settings: not reported in Table 2, read-out: MIC, all fungal strains tested
[3] = tested on: Staphylococcus epidermidis ATCC 12228; experiment: Antibacterial microdilution broth method (EUCAST); type: cell-based
[4] = tested on: Klebsiella pneumoniae ATCC 10031; settings: for MIC KP 24 h: 24 h incubation; for MIC KP 48 h: 48 h incubation
[5] = target: BuChE from equine serum (EqBuChE) (Equus caballus, UniProt P81908); experiment: biochemical
[6] = tested on: Enterococcus faecalis ATCC 29212; experiment: Antibacterial microdilution broth method (EUCAST); type: cell-based
[7] = tested on: Pseudomonas aeruginosa ATCC 27853; experiment: Antibacterial microdilution broth method (EUCAST); type: cell-based
[8] = tested on: Staphylococcus aureus ATCC 29213; experiment: Antibacterial microdilution broth method (EUCAST); type: cell-based
[9] = tested on: methicillin-resistant Staphylococcus aureus ATCC 43300; experiment: Antibacterial microdilution broth method (EUCAST); type: cell-based; settings: ATCC 43300 / MRSA
[10] = target: AChE from electric eel (EeAChE) (Electrophorus electricus, UniProt O42275); experiment: biochemical; type: biochemical
[11] = tested on: Escherichia coli ATCC 25922; experiment: Antibacterial microdilution broth method (EUCAST); type: cell-based
[12] = tested on: Trichophyton interdigitale ATCC 9533; experiment: microbe, parasite or virus in culture; type: cell-based
[13] = tested on: Candida parapsilosis ATCC 22019; experiment: microbe, parasite or virus in culture; type: cell-based; settings: Lodderomyces parapsilosis
[14] = tested on: Candida albicans ATCC 24443; experiment: microbe, parasite or virus in culture; type: cell-based
Candida krusei ATCC 6258 = experiment: microbe, parasite or virus in culture; type: cell-based; settings: Pichia kudriavzevii
[15] = tested on: four Gram-positive and four Gram-negative bacterial strains; experiment: Antibacterial microdilution broth method, whole panel; type: cell-based; settings: read-out: MIC, all bacterial strains tested
[16] = tested on: Candida tropicalis ATCC 750; experiment: microbe, parasite or virus in culture; type: cell-based
[17] = ATCC19606, 24 h, read-out: MIC ACI 24 h
[18] = ATCC19606, 48 h, read-out: MIC ACI 48 h
[19] = ATCC12228, 24 h, read-out: MIC SE 24 h
[20] = ATCC12228, 48 h, read-out: MIC SE 48 h
[21] = ATCC29212, 24 h, read-out: MIC EF 24 h
[22] = ATCC29212, 48 h, read-out: MIC EF 48 h
[23] = ATCC27853, 24 h, read-out: MIC PA 24 h
[24] = ATCC27853, 48 h, read-out: MIC PA 48 h
[25] = ATCC29213, 24 h, read-out: MIC SA 24 h
[26] = ATCC29213, 48 h, read-out: MIC SA 48 h
[27] = ATCC25922, 24 h, read-out: MIC EC 24 h
[28] = ATCC25922, 48 h, read-out: MIC EC 48 h
[29] = ATCC9533, 72 h, read-out: MIC TI 72 h
[30] = ATCC9533, 120 h, read-out: MIC TI 120 h
[31] = ATCC22019, 24 h, read-out: MIC CP 24 h
[32] = ATCC22019, 48 h, read-out: MIC CP 48 h
[33] = ATCC24443, 24 h, read-out: MIC CA 24 h
[34] = ATCC24443, 48 h, read-out: MIC CA 48 h
[35] = ATCC6258, 24 h, read-out: MIC CK 24 h
[36] = ATCC6258, 48 h, read-out: MIC CK 48 h
[37] = ATCC750, 24 h, read-out: MIC CT 24 h
[38] = ATCC750, 48 h, read-out: MIC CT 48 h
[39] = mean ± SD, n = three independent experiments, BTCh 40 µM, read-out: IC50 BuChE
[40] = mean ± SD, n = three independent experiments, ATCh 40 µM, read-out: IC50 AChE

BuChE from equine serum (EqBuChE), sequence (P81908 whole entry): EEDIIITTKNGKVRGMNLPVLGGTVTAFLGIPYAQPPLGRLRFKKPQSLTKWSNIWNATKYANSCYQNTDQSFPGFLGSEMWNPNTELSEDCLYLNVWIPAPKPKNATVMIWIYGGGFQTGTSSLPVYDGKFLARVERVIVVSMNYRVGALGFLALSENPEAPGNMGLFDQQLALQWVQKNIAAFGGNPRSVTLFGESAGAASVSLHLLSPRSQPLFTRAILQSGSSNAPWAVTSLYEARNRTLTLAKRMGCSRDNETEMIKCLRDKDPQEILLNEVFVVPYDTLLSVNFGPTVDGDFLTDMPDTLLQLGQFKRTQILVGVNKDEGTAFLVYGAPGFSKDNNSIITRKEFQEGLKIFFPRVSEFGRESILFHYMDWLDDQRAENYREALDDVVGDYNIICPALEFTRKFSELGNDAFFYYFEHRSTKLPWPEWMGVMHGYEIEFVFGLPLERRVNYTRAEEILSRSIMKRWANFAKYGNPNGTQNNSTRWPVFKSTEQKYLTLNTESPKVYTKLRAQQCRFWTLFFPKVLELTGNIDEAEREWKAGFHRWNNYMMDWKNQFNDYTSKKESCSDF
AChE from electric eel (EeAChE), sequence (O42275 24-633): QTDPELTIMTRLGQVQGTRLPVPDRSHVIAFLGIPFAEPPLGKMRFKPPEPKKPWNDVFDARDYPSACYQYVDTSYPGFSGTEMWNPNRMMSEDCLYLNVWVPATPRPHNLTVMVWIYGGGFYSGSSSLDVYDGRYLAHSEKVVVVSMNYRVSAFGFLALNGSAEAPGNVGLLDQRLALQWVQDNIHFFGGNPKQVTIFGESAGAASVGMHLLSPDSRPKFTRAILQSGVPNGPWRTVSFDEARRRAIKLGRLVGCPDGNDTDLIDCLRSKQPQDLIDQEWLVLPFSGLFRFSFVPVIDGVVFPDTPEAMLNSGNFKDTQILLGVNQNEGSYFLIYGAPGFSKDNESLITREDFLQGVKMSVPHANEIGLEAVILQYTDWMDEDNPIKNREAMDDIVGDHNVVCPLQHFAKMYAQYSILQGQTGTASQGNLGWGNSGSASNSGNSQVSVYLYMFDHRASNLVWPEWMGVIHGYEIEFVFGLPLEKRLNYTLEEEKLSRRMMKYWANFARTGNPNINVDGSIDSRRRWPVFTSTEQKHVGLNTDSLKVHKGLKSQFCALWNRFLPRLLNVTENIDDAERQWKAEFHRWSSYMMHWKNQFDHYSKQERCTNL
Method for HepG2 cells: Cytotoxicity of the tested compounds was measured using the standard hepatic cell line HepG2. The used CellTiter 96® assay is based on the reduction of tetrazolium dye (MTS) in living cells to formazan, which is then determined colorimetrically.

Structure (SMILES)	MIC [1, 17] [µM]	MIC [1, 18] [µM]	MIC [2] [µM]	MIC [3, 19] [µM]	MIC [3, 20] [µM]	MIC KP 24 h [4] [µM]	MIC KP 48 h [4] [µM]	MIC [6, 21] [µM]	MIC [6, 22] [µM]	MIC [7, 23] [µM]	MIC [7, 24] [µM]	MIC [8, 25] [µM]	MIC [8, 26] [µM]	MIC ([9]; 24 h, read-out: MIC MRSA 24 h) [µM]	MIC ([9]; 48 h, read-out: MIC MRSA 48 h) [µM]	IC50 [10] [µM]	Selectivity AChE/BuChE [10]	MIC [11, 27] [µM]	MIC [11, 28] [µM]	IC50 [5, 39]	further results
[H]/N=C(\N)NN=Cc1ccccc1 [Compound 1a, (E)-2-Benzylidenehydrazine-1-carboximidamide]	> 500	> 500	≥ 500	250 (≈ 40.5 µg/mL)	250 (≈ 40.5 µg/mL)	>500	>500	> 500	> 500	> 500	> 500	500 (≈ 81.1 µg/mL)	500 (≈ 81.1 µg/mL)	> 500	> 500	36.19 ± 0.1	0.81	> 500	> 500	–	IC50 ([5]; IC50 BuChE): 44.9 ± 0.54 µM
N=C(N/N=C/c1cc(I)cc(I)c1O)N/N=C/c1cc(I)cc(I)c1O [Compound 2g, Bis[2-((E)-2-hydroxy-3,5-diiodobenzylidene)hydrazineyl]methaniminium chloride]	–	–	–	–	–	–	–	–	–	–	–	–	–	–	–	54.9 ± 1.72	–	–	–	–	MIC [12, 29]: 250 µM; MIC [12, 30]: 250 µM; IC50 ([5]; read-out: IC50 BuChE): 8.26 ± 0.21 µM; MIC [13, 31]: > 500 µM; MIC [13, 32]: > 500 µM; MIC [14, 33]: > 500 µM; MIC [14, 34]: > 500 µM; MIC (Candida krusei ATCC 6258; [35]): > 500 µM; MIC (Candida krusei ATCC 6258; [36]): > 500 µM; MIC [15]: ≥ 500 µM; MIC [16, 37]: > 500 µM; MIC [16, 38]: > 500 µM
[H]/N=C(\N)NN=Cc1cc(Cl)cc(Br)c1O [Compound 1k, (E)-2-(3-Bromo-5-chloro-2-hydroxybenzylidene)hydrazine-1-carboximidamide]	> 500	> 500	–	125 (≈ 36.4 µg/mL)	250 (≈ 72.9 µg/mL)	250 (≈ 72.9 µg/mL)	250 (≈ 72.9 µg/mL)	500 (≈ 146 µg/mL)	500 (≈ 146 µg/mL)	> 500	> 500	250 (≈ 72.9 µg/mL)	250 (≈ 72.9 µg/mL)	250 (≈ 72.9 µg/mL)	250 (≈ 72.9 µg/mL)	–	1.92	500 (≈ 146 µg/mL)	500 (≈ 146 µg/mL)	< 20 µM and 11.7 µM	MIC [12, 29]: 125 µM (≈ 36.4 µg/mL); MIC [12, 30]: 250 µM (≈ 72.9 µg/mL); MIC [13, 31]: 500 µM (≈ 146 µg/mL); MIC [13, 32]: 500 µM (≈ 146 µg/mL); MIC [14, 33]: 250 µM (≈ 72.9 µg/mL); MIC [14, 34]: 500 µM (≈ 146 µg/mL); MIC (Candida krusei ATCC 6258; [35]): 500 µM (≈ 146 µg/mL); MIC (Candida krusei ATCC 6258; [36]): 500 µM (≈ 146 µg/mL); MIC [16, 37]: 500 µM (≈ 146 µg/mL); MIC [16, 38]: 500 µM (≈ 146 µg/mL); IC50 [10, 40]: 22.4 ± 0.67 µM
NNC(N)=S [thiosemicarbazide, reference compound]	–	–	–	–	–	–	–	–	–	–	–	–	–	–	–	–	0.14	–	–	–	Cytotoxicity in HepG2 in words (HepG2 cells): no significant cytotoxicity; IC50 ([5]; read-out: IC50 BuChE): 327.8 ± 3.22 µM; IC50 ([10]; read-out: IC50 AChE): 46.1 ± 1.1 µM
[H]/N=C(\N)NN=Cc1cc(Cl)cc(Cl)c1O [Compound 1j, (E)-2-(3,5-Dichloro-2-hydroxybenzylidene)hydrazine-1-carboximidamide]	500 (≈ 124 µg/mL)	500 (≈ 124 µg/mL)	≥ 500	250 (≈ 61.8 µg/mL)	250 (≈ 61.8 µg/mL)	500 (≈ 124 µg/mL)	500 (≈ 124 µg/mL)	250 (≈ 61.8 µg/mL)	250 (≈ 61.8 µg/mL)	250 (≈ 61.8 µg/mL)	250 (≈ 61.8 µg/mL)	250 (≈ 61.8 µg/mL)	250 (≈ 61.8 µg/mL)	250 (≈ 61.8 µg/mL)	250 (≈ 61.8 µg/mL)	–	0.66	500 (≈ 124 µg/mL)	500 (≈ 124 µg/mL)	61.7 ± 4.33 µM	IC50 [10, 40]: 40.8 ± 0.8 µM
[H]/N=C(\N)NN=Cc1ccc(Cl)cc1 [Compound 1d, (E)-2-(4-Chlorobenzylidene)hydrazine-1-carboximidamide]	–	–	–	–	–	–	–	–	–	–	–	–	–	–	–	45.2 ± 1.6	3.25	–	–	< 20 µM and 13.9 µM	MIC [15]: ≥ 500 µM
[H]/N=C(\N)NN=Cc1cc(I)c(O)c(I)c1 [Compound 2b, (E)-2-(4-Hydroxy-3,5-diiodobenzylidene)hydrazine-1-carboximidamide]	> 500	> 500	≥ 500	250 (≈ 107 µg/mL)	500 (≈ 215 µg/mL)	250 (≈ 107 µg/mL)	250 (≈ 107 µg/mL)	500 (≈ 215 µg/mL)	500 (≈ 215 µg/mL)	> 500	> 500	500 (≈ 215 µg/mL)	500 (≈ 215 µg/mL)	500 (≈ 215 µg/mL)	500 (≈ 215 µg/mL)	–	0.87	500 (≈ 215 µg/mL)	500 (≈ 215 µg/mL)	46.28 ± 0.29 µM	IC50 [10, 40]: 40.3 ± 0.85 µM
